According to patent EP0983294B1, “B-RING E[…] SULPHATES” (Wyeth, priority 1997, dated 1998):

System: Immature rats
Test: In vivo uterotropic activity
Settings: 0.2 and 2 mg/kg for three days (S.C.)
Description: Immature rats were treated with doses of 0.2 and 2 mg/kg 5,7,9-estratriene-3β,17β-diol for three days (S.C.) as well as additional groups (n=6) of rats treated with 0.5 µg ethinyl estradiol and vehicle as positive and negative controls, respectively.

For `C[C@]12CCc3c(ccc4c3CC[C@H](O)C4)[C@@H]1CC[C@@H]2O` [5,7,9-estratriene-3β,17β-diol], which uterine weight is on record?
The uterine weight was “uterine weight gains at both concentrations”.
